Assay results from patent US6962930B1, “Compounds, compositions and method suitable for amelioration of withdrawal syndromes and withdrawal-induced brain damage” (Lohocla Research Corporation, priority 1997, dated 2005).

What was measured:
naive Swiss-Webster mice = assay: Elevated plus-maze; assay type: in vivo; details: 100 or 500 mg/kg
Procedure: The anxiolytic effect of the DCUK-OMe was studied in naive Swiss-Webster mice using an elevated plus-maze apparatus. The plus-shaped maze consists of two arms which are open to the environment (about 30×5 cm) and two arms with side and end walls (about 30×5×15 cm). The arms are connected to a central area (about 5×5 cm) and the plus-maze is elevated from the floor to a height of about 50 cm.
All tests were conducted in a sound-attenuated room under low intensity light (25 Watt). […] A trained observer blind to the treatment conditions scored the number of entries into open arms, the number of entries into closed arms, the number of entries into the central area, the number of rears, and the number of grooming episodes over a 5-minute period. […] The percentage open arm entries was calculated for each animal and used as a measure of the anxiolytic/anxiogenic effects of drug treatment. In addition, the total number of entries made into either open or closed arms was recorded as a measure of drug effects on locomotor activity.
Mice were injected with either vehicle (5% Tween-80, 20% Intralipid) or 100 mg/kg or 500 mg/kg DCUK-OMe suspended in the vehicle about 90 minutes before testing in the plus-maze apparatus. Data were expressed as the percent increase in open arm entries of the drug treated animals compared to vehicle-injected mice. […] Data were analyzed using a one-way ANOVA on ranks. […]

[1] = tested on: ethanol withdrawal-induced seizures in C57BL/6 mice; assay: Ethanol withdrawal-induced seizures; assay type: in vivo; details: single 100 mg/kg i.p. at 0900 hours
Text: Male C57BL/6 mice were housed individually. One group of mice were each given a measured amount of liquid diet (BioServ) containing 6.7% ethanol (v/v) and a second, control group of mice each received the same diet with maltodextrin substituted isocalorically for ethanol, as their sole nutrient source for 7 days. A description of such a test can be found in Grant, K. A., et al., “ETHANOL WITHDRAWAL SEIZURES AND THE NMDA RECEPTOR COMPLEX,” Eur. J. Pharmacol., 176 289–296, (1990), the relevant disclosures of which are incorporated herein by reference. Pair-fed mice were given a volume of liquid diet equal to the average volume that the ethanol-fed mice consumed on the previous day. This treatment regimen produces mice that are functionally tolerant to and physically dependent on ethanol. Beginning at 0700 hours on the eighth day of the diet, ethanol-containing diet was replaced with control liquid diet (“withdrawal”).
Withdrawal seizure severity was assessed by measuring the incidence of handling-induced and spontaneous seizures, which were rated on a rating scale of 0 to 4, modified from a rating scale described by Grant, K. A., et al. in the above cited article. The rating scale was as follows: 0, little or no reaction; 1, slight jerkiness upon handling; 2, excitability increasing in magnitude to a clonic-tonic seizure; 3, spontaneous or instantaneous clonic-tonic seizure; 4, death while in a seizure. The mice were rated for seizure severity at 2, 4, 6, 7, 8, 9, 10, 11, 12 and 24 hours after ethanol withdrawal. Groups of ethanol-fed mice were injected intraperitoneally at 0700, 1100 and 1400 hours with saline, 3, 10 or 17 mg/kg (±)HA-966 (FIG. 5A) or 10, 17 or 30 mg/kg 7-Cl kynurenic acid (FIG. 5B).
Male C57BL/6 mice were fed ethanol in a liquid diet and the withdrawal seizure severity was assessed as described in EXAMPLE 5. Groups of ethanol-fed mice received a single injection (i.p.) of either vehicle (4% Tween-80, 0.5% carboxymethylcellulose in 0.9% saline) alone or of 100 mg/kg DCUK-OMe suspended in the vehicle administered at 0900 hours. The results are presented in FIG. 6A as the median withdrawal scores of vehicle-injected (N=14) or DCUK-OMe injected (N=6) mice in which * denotes P<0.05, statistically compared to vehicle-injected mice, in the Mann-Whitney U test. FIG. 6B presents the same data as the total withdrawal score, defined as the area enclosed by the curve connecting median withdrawal scores plotted against time as in FIG. 6A. The mean total withdrawal scores±SEM for the vehicle-injected group and DCUK-OMe-injected groups are plotted in which * denotes P<0.05, statistically compared to vehicle-injected mice, by the Student t-test.

Swiss-Webster mice = assay: Ethanol-induced loss of righting reflex; assay type: in vivo; details: i.p. 30 minutes before ethanol; DCUK-OMe 100 mg/kg, DZP 1 mg/kg
Procedure: Swiss-Webster mice were pretreated (i.p.) with 100 mg/kg DCUK-OMe or 1 mg/kg diazepam (DZP) (in 5% Tween-80, 20% Intralipid) 30 minutes before receiving an i.p. administration of ethanol (either 2.3 or 3.2 g/kg, 20% v/v in saline.). The duration of the ethanol-induced loss of righting reflex (defined as the inability of the mouse to right itself when placed on its back in a trough) was measured. […] Since withdrawal signs are many times evident in individuals whose blood ethanol levels are dropping but are far from zero, the DCUK compounds would have an advantage over DZP in that the CNS depressant effects of ethanol would not be accentuated by DCUK compounds if the DCUK compounds are used in an alcohol-intoxicated individual.

[2] = biological target: α2-noradrenergic receptors; assay: [3H]rauwolscine binding, rat cortex crude membranes; details: crude P1 membranes
Procedure: Rat cortices were homogenized in 20 volumes of ice-cold HEPES-KOH buffer (20 mM, pH 7.4) and twice centrifuged at 50,000 g for 20 min with an intermediate suspension in fresh buffer. The final pellet was stored at −20° C. in 4 volumes of buffer. The binding of [^3H]rauwolscine was performed in a 0.5 ml volume using 250–300 μg tissue and 1 nM [^3H]rauwolscine in 20 mM HEPES-KOH buffer (pH 7.4 at 23° C.). Non-specific binding was defined by use of 100 μM norepinephrine.

| IC50 [2] [µM] | SMILES | open arm entries (anxiolytic effect) (naive Swiss-Webster mice; about 90 minutes before testing) | total arm entries (locomotor activity) (naive Swiss-Webster mice; compared to vehicle) | ethanol withdrawal severity [1] | duration of ethanol-induced loss of righting reflex (LORR) (Swiss-Webster mice) |
| --- | --- | --- | --- | --- | --- |
| – | COC(=O)c1cc(NC(=O)N(c2ccccc2)c2ccccc2)c2c(Cl)cc(Cl)cc2n1 [DCUK-OMe, (N,N-diphenyl)-4-ureido-5,7-dichloro-2-carboxy-quinoline methyl ester] | has anxyolitic activity | did not show any increase in total arm entries | reduces ethanol withdrawal severity | no significant enhancement |
| > 200 | O=C(O)c1cc(NC(=O)N(c2ccccc2)c2ccccc2)c2c(Cl)cc(Cl)cc2n1 [DCUKA, (N,N-diphenyl)-4-ureido-5,7-dichloro-2-carboxy-quinoline] | – | – | – | – |
